The source of these data is patent US6635641B2 (Agouron Pharmaceuticals, Inc., priority 2000, dated 2003).

Series [1] addresses T1, phosphorylated VEGF-R2Δ50 (FLVK-P) (Homo sapiens, UniProt P35968, DEL940-989/E990V).
T1 construct: VEGF-R2Δ50 contains residues 806-939 and 990-1171; made in house; host or cells: baculovirus/insect cells
The series is described as follows: VEGF-R2 coupled spectrophotometric assay, phosphorylated construct (FLVK-P). It counts as biochemical. The procedure, abridged:
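Continuous PK/LDH-coupled spectrophotometric read (NADH loss at 340 nm) with 5–40 nM enzyme in 200 mM Hepes pH 7.5. Phosphorylated construct run at 1 mM ATP, 25 mM MgCl2, 5.1 mM poly(E4Y1); unphosphorylated at 3 mM ATP, 60 mM MgCl2 plus 2 mM MnCl2, 20 mM poly(E4Y1). Ki values derived from varied inhibitor concentrations.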

Series [2] concerns the target T2, unphosphorylated VEGF-R2Δ50 (FLVK) (Homo sapiens, UniProt P35968, DEL940-989/E990V).
T2 construct: VEGF-R2Δ50 contains residues 806-939 and 990-1171; made in house; host or cells: baculovirus/insect cells
As to the kind of experiment: VEGF-R2 coupled spectrophotometric assay, unphosphorylated construct (FLVK).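 Note: Baculovirus-expressed cytosolic kinase domain, ADP formation linked via pyruvate kinase and lactate dehydrogenase to NADH oxidation, read as falling absorbance at 340 nm.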 It is filed as biochemical.

For series [3], the target named is T3, FGF-R1 intracellular kinase domain (Homo sapiens, UniProt P11362, C488A/C584S/L457V).
T3 construct: starting from the endogenous methionine residue 456 to glutamate 766; made in house; host or cells: baculovirus expression system
T3 sequence (P11362 456-766 L457V/C488A/C584S): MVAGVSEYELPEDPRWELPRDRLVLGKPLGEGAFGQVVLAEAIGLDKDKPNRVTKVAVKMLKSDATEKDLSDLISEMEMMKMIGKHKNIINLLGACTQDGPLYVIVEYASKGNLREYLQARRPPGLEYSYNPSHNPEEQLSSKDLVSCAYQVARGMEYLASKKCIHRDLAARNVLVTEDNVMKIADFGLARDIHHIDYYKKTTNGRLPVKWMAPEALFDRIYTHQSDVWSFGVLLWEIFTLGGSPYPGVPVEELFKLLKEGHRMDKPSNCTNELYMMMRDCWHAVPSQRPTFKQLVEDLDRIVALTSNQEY
The series is described as follows: FGF-R spectrophotometric assay.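 Note: coupled PK/LDH enzyme assay: ADP from kinase phosphoryl transfer drives NADH oxidation, read as absorbance decrease at 340 nm, with 2 mM ATP and poly(E4Y1) substrate.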 It is filed as biochemical. Conditions: @ 1 μM; read-out: FGF-P percent inhibition.

For another series, the target named is T4, LCK tyrosine kinase (Homo sapiens, UniProt P06239, C224D/P223M).
T4 construct: starting from amino acid residue 223 to the end of the protein at residue 509; made in house; host or cells: insect cells
T4 sequence (P06239 223-509 P223M/C224D): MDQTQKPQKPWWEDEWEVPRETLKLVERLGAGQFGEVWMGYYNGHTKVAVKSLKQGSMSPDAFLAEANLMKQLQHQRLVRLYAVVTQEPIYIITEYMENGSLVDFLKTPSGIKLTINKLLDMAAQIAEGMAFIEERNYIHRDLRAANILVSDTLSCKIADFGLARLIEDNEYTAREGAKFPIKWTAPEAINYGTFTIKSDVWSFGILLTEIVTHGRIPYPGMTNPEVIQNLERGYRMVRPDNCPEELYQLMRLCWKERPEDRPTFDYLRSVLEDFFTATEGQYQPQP
The series is described as follows: LCK spectrophotometric assay.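 For all read-outs here: recombinant LCK kinase activity on poly(E4Y1), ADP formation coupled through PK/LDH to NADH oxidation, followed as absorbance loss at 340 nm.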 It counts as biochemical. Conditions: for Ki: read-out: LCK-P Ki; for inhibition at 1 µM: read-out: LCK-P percent inhibition.

In series [4] the test system is human umbilical vein endothelial cells (HUVEC). The series is described as follows: HUVEC proliferation assay (VEGF-stimulated, MTT). The settings on record: Homo sapiens. It counts as cell-based. The procedure, abridged:
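Proliferation measured by MTT reduction (4 h exposure, absorbance at 595) 72 hours after VEGF stimulation (final 6 ng/ml). Compound added to 24 h-starved HUVEC in F12K with 1% FBS and 0.1% final DMSO, one hour before the growth factor.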

The subject of series [5] is lung cancer cells (line MV522). As to the kind of experiment: Cancer cell proliferation (MV522) assay (MTT). It is filed as cell-based. The settings on record: MV522. The method in brief:
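Proliferation was read by MTT reduction 72 h after compound addition, in a 4-day protocol with no starvation step. Two thousand MV522 cells were seeded in RPMI1640 with 10% FBS and 2 mM glutamine and given 1 day to attach before dosing.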

[6] abbreviates: HUVEC, with albumin, read-out: Huvec + Albumin IC50.
The mark [7] stands for this setting: unphosphorylated VEGF-R2 construct.
The mark [8] stands for this setting: VEGF-stimulated HUVEC proliferation, read-out: HUVEC IC50.

Like-named read-outs stand apart in the source and are kept apart here. Some results are limits rather than exact numbers.

T2 sequence (P35968 with tags, fused parts or gaps DEL940-989/E990V limits assumed): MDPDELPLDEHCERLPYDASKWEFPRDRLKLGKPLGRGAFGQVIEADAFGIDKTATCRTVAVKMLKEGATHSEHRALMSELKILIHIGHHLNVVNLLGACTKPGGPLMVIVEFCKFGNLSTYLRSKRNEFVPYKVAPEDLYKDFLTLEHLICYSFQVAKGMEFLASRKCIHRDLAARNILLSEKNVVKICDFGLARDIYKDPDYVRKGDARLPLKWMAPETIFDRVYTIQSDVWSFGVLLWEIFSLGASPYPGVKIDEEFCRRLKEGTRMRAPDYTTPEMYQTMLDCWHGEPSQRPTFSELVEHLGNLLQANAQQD
T1 sequence (P35968 with tags, fused parts or gaps DEL940-989/E990V limits assumed): as above
Procedure for LCK tyrosine kinase: The production of ADP from ATP that accompanies phosphoryl transfer was coupled to oxidation of NADH using phosphoenolpyruvate (PEP) and a system having pyruvate kinase (PK) and lactic dehydrogenase (LDH). The oxidation of NADH was monitored by following the decrease of absorbance at 340 nm (e340=6.22 cm^−1 mM^−1) using a Beckman DU 650 spectrophotometer. Assay conditions for phosphorylated VEGF-R2Δ50 (indicated as FLVK-P in the tables below) were the following: 1 mM PEP; 250 μM NADH; 50 units of LDH/mL; 20 units of PK/mL; 5 mM DTT; 5.1 mM poly(E4Y1); 1 mM ATP; and 25 mM MgCl2 in 200 mM Hepes, pH 7.5. Assay conditions for unphosphorylated VEGF-R2Δ50 (indicated as FLVK in the tables) were the following: 1 mM PEP; 250 μM NADH; 50 units of LDH/mL; 20 units of PK/mL; 5 mM DTT; 20 mM poly(E4Y1); 3 mM ATP; and 60 mM MgCl2 and 2 mM MnCl2 in 200 mM Hepes, pH 7.5. Assays were initiated with 5 to 40 nM of enzyme. Ki values were determined by measuring enzyme activity in the presence of varying concentrations of test compounds. The data were analyzed using Enzyme Kinetic and Kaleidagraph software.

For orientation: Ki means a dissociation constant, usually derived from enzyme kinetics or from competition with a known ligand. One may read the inhibition as the share of the control response that was lost under treatment. Broadly, the IC50 is the point on the concentration scale where inhibition reaches its midpoint. With `COc1ccc(Nc2cc(CCc3cccc(C(=O)Nc4ccc(N(C)C)c(C(F)(F)F)c4)c3)[nH]n2)cn1` [Example G-5, N-(4-Dimethylamino-3-trifluoromethylphenyl)-3-{2-[5-(6-methoxypyridin-3-yl)amino-2H-pyrazol-3-yl]ethyl}-benzamide], the Ki in series [1] is 1.86 nM; in series [2], 0.35 nM; at LCK tyrosine kinase, 69 nM. The inhibition at 1 µM in series [3] was determined as 68%. Moreover, the IC50 in series [4] (HUVEC, read-out: HUVEC IC50) is 8.4 nM; in series [5], more than 10000 nM.

One may read the melting point as the temperature of the solid-liquid transition. For `O=C(Nc1cc(Cl)c(N2CCCC2)c(Cl)c1)c1ccc(F)c(OCc2cccnc2)c1` [Example R-11, N-(3,5-Dichloro-4-pyrrolidin-1-yl-phenyl)-4-fluoro-3-(pyridin-3-ylmethoxy)-benzamide], the melting point lay in the range of 163 to 167 °C. In addition, in series [2] (@ 50 nM, read-out: FLVK percent inhibition), the inhibition at 0.05 µM amounted to 59%. The inhibition at 1 µM in series [3] was determined as 30%. Besides, the inhibition at 1 µM on LCK tyrosine kinase amounted to 59%. Also, the 50% inhibitory concentration (IC50) in series [4] (HUVEC, read-out: HUVEC IC50) worked out at 31 nM.

In the case of `COc1ccc(/C=C/c2cc(CCc3cccc(C(=O)Nc4ccc(C(C)C)c(C)c4)c3)[nH]n2)cc1OC` [Example F-3, 3-(2-{5-[(E)-2-(3,4-Dimethoxyphenyl)ethenyl]-2H-pyrazol-3-yl}-ethyl)-N-(3-methyl-4-isopropylphenyl)-benzamide], the inhibition constant (Ki) in series [1] turned out to be 1.01 nM; in series [2] it was 0.31 nM. The values for the inhibition at 1 µM (in series [3]; at LCK tyrosine kinase) were 83% and 84%, respectively. Further, the 50% inhibitory concentration (IC50) in series [4] (HUVEC, read-out: HUVEC IC50) is 10 nM; in series [5], more than 10000 nM.

In the case of `Cc1cc(NC(=O)c2cccc(OCc3cncc4ccccc34)c2)ccc1C(C)C` [Example K-1, N-(4-Isopropyl-3-methyl-phenyl)-3-(Isoquinolin-4-yl)methoxy-benzamide], the Ki worked out at 1.46 nM in series [1], 1.6 nM in series [2] and 59 nM at LCK tyrosine kinase. The inhibition at 1 µM in series [3] is 79%. In addition, the half-maximal inhibitory concentration (IC50) was 40 nM in series [4] (HUVEC, read-out: HUVEC IC50); more than 1000 nM in series [4] (setting [6]); 10000 nM in series [5].

With `CC(C)(C)c1cc(C(=O)Nc2cccc(SCc3cncc4ccccc34)c2)ccc1O.Cl` [Example W-3, 3-t-Butyl-4-hydroxy-N-[3-(isoquinolin-4-ylmethylsulfanyl)-phenyl]-benzamide], the melting point was in the range of 205 to 210 °C. For the same compound, in series [2] (setting [7]), the Ki was 0.7 nM. Moreover, the inhibition at 1 µM in series [3] turned out to be 56%. At LCK tyrosine kinase, the inhibition at 1 µM stood at 65%. Further, the IC50 in series [4] (setting [8]) stood at 220 nM.

As to `CNS(=O)(=O)c1ccc(Nc2cc(CCc3cccc(C(=O)Nc4ccc(C(C)C)c(C)c4)c3)[nH]n2)cc1` [Example G-1, N-(4-Isopropyl-3-methyl-phenyl)-3-{2-[5-(4-(methylsulfamoyl)phenylamino)-2H-pyrazol-3-yl]-ethyl}-benzamide], the inhibition constant Ki stood at 0.592 nM in series [1] and 90 nM on LCK tyrosine kinase. For the same compound, the inhibition at 1 µM in series [3] worked out at 81%. Moreover, the half-maximal inhibitory concentration (IC50) in series [4] (HUVEC, read-out: HUVEC IC50) was 10 nM; in series [4] (setting [6]), 435 nM; in series [5] it was more than 10000 nM.

With `Cc1cc(NC(=O)c2ccc(Cl)c(OCc3cncc4ccccc34)c2)ccc1C(C)C` [Example K-12, N-(4-Isopropyl-3-methyl-phenyl)-4-chloro-3-(Isoquinolin-4-yl)methoxy-benzamide], the Ki in series [1] is 2.96 nM. Further, the inhibition at 1 µM in series [3] came out at 70%; at LCK tyrosine kinase, 48%. Also, the concentration for half-maximal inhibition (IC50) in series [4] (HUVEC, read-out: HUVEC IC50) came to 27 nM; in series [5], 4700 nM.

Consider `Cl.O=C(Nc1ccc(N2CCOCC2)c(C(F)(F)F)c1)c1ccc(F)c(OCc2cncc3ccccc23)c1` [Example R-14, 4-Fluoro-N-(4-morpholin-4-yl-3-trifluoromethyl-phenyl)-3-(isoquinolin-4-ylmethoxy)-benzamide], for which the melting point lay within 175 to 180 °C. Also, in series [2], the affinity corresponds to a Ki of 3.4 nM. Also, the inhibition at 1 µM in series [3] amounted to 96%. On LCK tyrosine kinase, the inhibition at 1 µM amounted to 87%. The IC50 in series [4] (HUVEC, read-out: HUVEC IC50) stood at 14 nM. Besides, the IC50 in series [4] (setting [6]) was 345 nM. For the same compound, the 50% inhibitory concentration (IC50) in series [5] worked out at 5700 nM.

`O=C(Nc1ccc(N2CCOCC2)c(C(F)(F)F)c1)c1ccc(F)c(OCc2cccnc2)c1` [Example R-12, 4-Fluoro-N-(4-morpholin-4-yl-3-trifluoromethyl-phenyl)-3-(pyridin-3-ylmethoxy)-benzamide] had a melting point of 160 to 161 °C. In addition, affinity in series [2] was put at a Ki of 4.4 nM. Besides, the inhibition at 1 µM in series [3] turned out to be 62%. In addition, the inhibition at 1 µM at LCK tyrosine kinase came out at 45%. The half-inhibitory concentration (IC50) in series [4] (HUVEC, read-out: HUVEC IC50) came out at 15 nM. The compound also yielded an IC50 in series [5] of 5900 nM.

In the case of `CC(C)(C)c1cc(C(=O)Nc2cccc(SCc3cccnc3)c2)ccc1O` [Example W-2, 3-t-Butyl-4-hydroxy-N-[3-(pyridin-3-ylmethylsulfanyl)-phenyl]-benzamide], the melting point was in the range of 95 to 100 °C. The compound also returned an inhibitory constant (Ki) in series [2] (setting [7]) of 1.5 nM. For the same compound, in series [3], the inhibition at 1 µM is 18%. The inhibition at 1 µM at LCK tyrosine kinase is 19%. In series [4] (setting [8]), the concentration for half-maximal inhibition (IC50) is 120 nM.

`COc1ccc(Nc2cc(CCc3cccc(C(=O)Nc4ccc(C(C)C)c(C)c4)c3)[nH]n2)cn1` [Example G-4, N-(4-Isopropyl-3-methyl-phenyl)-3-{2-[5-(6-methoxypyridin-3-yl)amino-2H-pyrazol-3-yl]-ethyl}-benzamide]: the figures for the inhibitory constant (Ki) (in series [1]; in series [2]; on LCK tyrosine kinase) were 0.79 nM, 0.1 nM and 72 nM, respectively. Moreover, in series [3], the inhibition at 1 µM was determined as 77%. Besides, the half-inhibitory concentration (IC50) in series [4] (HUVEC, read-out: HUVEC IC50) was 16 nM; in series [5], more than 10000 nM.

On to `COc1ccc(Nc2cc(CCc3cccc(C(=O)Nc4ccc(N5CCNCC5)c(C(F)(F)F)c4)c3)[nH]n2)cn1` [Example G-10], for which the Ki in series [1] was determined as 2.6 nM; in series [2], 3 nM. For the same compound, the inhibition at 1 µM was determined as 33% in series [3] and 48% at LCK tyrosine kinase. The IC50 in series [4] (HUVEC, read-out: HUVEC IC50) was determined as 5.7 nM; in series [4] (setting [6]), 180 nM; in series [5], 5100 nM.

In the case of `COc1ccc(Nc2cc(CCc3cccc(C(=O)Nc4cnc(N(C)C)c(C(F)(F)F)c4)c3)[nH]n2)cn1` [Example G-6, N-(6-Dimethylamino-5-trifluoromethylpyridin-3-yl)-3-{2-[5-(6-methoxypyridin-3-yl)amino-2H-pyrazol-3-yl]ethyl}-benzamide], the inhibitory constant (Ki) in series [1] came out at 1.98 nM; on LCK tyrosine kinase it was 65 nM. Besides, in series [3], the inhibition at 1 µM was 74%. Also, the IC50 in series [4] (HUVEC, read-out: HUVEC IC50) turned out to be 12 nM; in series [4] (setting [6]), 59 nM; in series [5] it was 10000 nM.

As to `O=C(Nc1ccc(N2CCNCC2)c(C(F)(F)F)c1)c1ccc(F)c(OCc2cncc3ccccc23)c1` [Example R-15, 4-Fluoro-N-(4-piperazin-1-yl-3-trifluoromethyl-phenyl)-3-(isoquinolin-4-ylmethoxy)-benzamide], the Ki in series [2] is 8.8 nM. Also, the values for the inhibition at 1 µM (in series [3]; on LCK tyrosine kinase) were 41% and 26%, respectively. The IC50 came to 36 nM in series [4] (HUVEC, read-out: HUVEC IC50); 130 nM in series [4] (setting [6]); 3100 nM in series [5].

Turning to `Cc1cc(NC(=O)c2cccc(CCc3cc(Nc4ccccc4)n[nH]3)c2)ccc1C(C)C` [Example G-3, N-(4-isopropyl-3-methylphenyl)-3-[2-(5-phenylamino-2H-pyrazol-3-yl)ethyl]benzamide], the melting point was in the range of 150 to 151 °C. The affinity in series [1] corresponds to a Ki of 0.197 nM. For the same compound, in series [3], the inhibition at 1 µM turned out to be 91%. Moreover, the Ki on LCK tyrosine kinase was 11.2 nM. In addition, in series [4] (HUVEC, read-out: HUVEC IC50), the IC50 turned out to be 9.8 nM. Further, the IC50 in series [4] (setting [6]) worked out at 280 nM. This compound displayed an IC50 in series [5] of more than 10000 nM.

As for `Cc1cc(NC(=O)c2cccc(C3CC3c3cc(Nc4ccccc4)n[nH]3)c2)ccc1C(C)C` (stereo not drawn) [Example H-1, N-(4-Isopropyl-3-methyl-phenyl)-3-[2-(5-phenylamino-2-H-pyrazol-3-yl)cyclopropyl]-benzamide], the Ki in series [1] is 1.19 nM; in series [2], 0.19 nM. Moreover, the results for the inhibition at 1 µM (in series [3]; at LCK tyrosine kinase) were 83% and 41%, respectively. In addition, the IC50 in series [4] (HUVEC, read-out: HUVEC IC50) was 27 nM; in series [5] it was more than 10000 nM.

`CC(C)(C)c1cc(C(=O)Nc2cccc(OCc3cncc(Br)c3)c2)ccc1O` [Example X-1, N-[3-(5-Bromo-pyridin-3-ylmethoxy)-phenyl]-3-t-butyl-4-hydroxy-benzamide] yielded a melting point of 105 to 111 °C. The compound also displayed an inhibition constant Ki in series [2] (setting [7]) of 1.5 nM. For the same compound, the inhibition at 1 µM in series [3] stood at 28%. Moreover, on LCK tyrosine kinase, the inhibition at 1 µM stood at 59%. In addition, the IC50 in series [4] (HUVEC proliferation with albumin, read-out: Huvec + Albumin IC50) was 330 nM. In addition, the half-maximal inhibitory concentration (IC50) in series [4] (setting [8]) was found to be 27 nM.
